The assay relates to Staphylococcus aureus. The assay is described as follows: Antibacterial activity against methicillin-resistant Staphylococcus aureus 2658 RCMB up to 20 hrs by broth microdilution assay. The class given is functional. A general note: Dilution methods test growth across graded concentrations, often in twofold steps.

Values after ≈ are worked out from the molar mass of the structure shown. A value given as a limit tells only on which side of the number the result lay.

On to `CNc1nccc(-c2sc(-c3ccc(-c4ccccc4)cc3)nc2C)n1`, for which it took 12.5 µg/mL (≈ 34.9 µM) to inhibit growth (MIC). The value for `CCCCNc1nccc(-c2sc(-c3ccc(-c4ccccc4)cc3)nc2C)n1` was more than 25 µg/mL; that for `Cc1nc(-c2ccc(-c3ccccc3)cc2)sc1-c1ccnc(N)n1` was 6.25 µg/mL (≈ 18.1 µM); that for `Cc1nc(-c2ccc(-c3ccccc3)cc2)sc1-c1ccnc(N2CC(O)C2)n1` was 3.12 µg/mL (≈ 7.79 µM).

Turning to `Cc1nc(-c2ccc(-c3ccccc3)cc2)sc1-c1ccnc(N=C(N(C)C)N(C)C)n1`, the MIC (as a rule, the smallest concentration in the dilution series that meets the test's criterion for growth inhibition) was more than 25 µg/mL. Turning to `Cc1nc(-c2ccc(-c3ccccc3)cc2)sc1-c1ccnc(NC2CCCCC2)n1`, the MIC is more than 25 µg/mL. Turning to `Cc1nc(-c2ccc(-c3ccccc3)cc2)sc1-c1ccnc(NN)n1`, 1.56 µg/mL (≈ 4.34 µM) was the least that counted as inhibitory (MIC). For `Cc1nc(-c2ccc(-c3ccccc3)cc2)sc1-c1ccnc(NC(=N)c2ccccn2)n1` the value was more than 25 µg/mL. The value for `Cc1nc(-c2ccc(-c3ccccc3)cc2)sc1-c1ccnc(N(C)C)n1` was more than 25 µg/mL; that for `Cc1nc(-c2ccc(-c3ccccc3)cc2)sc1-c1ccnc(NN2CCOCC2)n1` was 3.12 µg/mL (≈ 7.26 µM). The value for `CCCCc1ccc(-c2nc(C)c(-c3ccnc(N)n3)s2)cc1` was 3.6 µg/mL (≈ 11.1 µM). Consider `Cc1nc(-c2ccc(-c3ccccc3)cc2)sc1-c1ccnc(NC(C)C)n1`, for which the MIC is more than 25 µg/mL.

For the molecule `CCCNc1nccc(-c2sc(-c3ccc(-c4ccccc4)cc3)nc2C)n1`, the minimal inhibitory concentration (MIC) is more than 25 µg/mL. For `Cc1nc(-c2ccc(-c3ccccc3)cc2)sc1-c1ccnc(N2CCCC2)n1` the value was more than 25 µg/mL; for `Cc1nc(-c2ccc(-c3ccccc3)cc2)sc1-c1ccnc(N2CCCCC2)n1`, more than 25 µg/mL. The value for `Cc1nc(-c2ccc(-c3ccccc3)cc2)sc1-c1ccnc(NC(=N)N2CCCCC2)n1` was more than 25 µg/mL; that for `Cc1nc(-c2ccc(-c3ccccc3)cc2)sc1-c1ccnc(NC#N)n1` was more than 25 µg/mL. For the molecule `Cc1nc(-c2ccc(-c3ccccc3)cc2)sc1-c1ccncn1`, the minimum inhibitory concentration (MIC) was more than 25 µg/mL. Molecule `CCN(CC)c1nccc(-c2sc(-c3ccc(-c4ccccc4)cc3)nc2C)n1` came in with an MIC of more than 25 µg/mL. The value for `Cc1nc(-c2ccc(-c3ccccc3)cc2)sc1-c1ccnc(N2CCOCC2)n1` was 3.12 µg/mL (≈ 7.53 µM); that for `CCNc1nccc(-c2sc(-c3ccc(-c4ccccc4)cc3)nc2C)n1` was 6.25 µg/mL (≈ 16.8 µM); that for `Cc1nc(-c2ccc(-c3ccccc3)cc2)sc1-c1ccnc(-c2ccncc2)n1` was more than 25 µg/mL. `Cc1nc(-c2ccc(-c3ccccc3)cc2)sc1-c1ccnc(N2CCC2)n1` gave an MIC of more than 25 µg/mL. The value for `Cc1nc(-c2ccc(-c3ccccc3)cc2)sc1-c1ccnc(NC(=N)c2ccncc2)n1` was more than 25 µg/mL. The value for `Cc1nc(-c2ccc(-c3ccccc3)cc2)sc1-c1ccnc(-c2cccnc2)n1` was more than 25 µg/mL; that for `Cc1nc(-c2ccc(-c3ccccc3)cc2)sc1-c1ccnc(NC2CCCC2)n1` was more than 25 µg/mL; that for `Cc1nc(-c2ccc(-c3ccccc3)cc2)sc1-c1ccnc(-c2ccccn2)n1` was more than 25 µg/mL. For `Cc1nc(-c2ccc(-c3ccccc3)cc2)sc1-c1ccnc(NC(=N)N2CCCC2)n1` the value was 12.5 µg/mL (≈ 28.4 µM).

In turn, `Cc1nc(-c2ccc(-c3ccccc3)cc2)sc1-c1ccnc(NC(=N)n2cccn2)n1` returned an MIC of more than 25 µg/mL. The value for `Cc1nc(-c2ccc(-c3ccccc3)cc2)sc1-c1ccnc(NC(N)=S)n1` was more than 25 µg/mL; that for `Cc1nc(-c2ccc(-c3ccccc3)cc2)sc1-c1ccnc(NC(=N)c2cccnc2)n1` was more than 25 µg/mL.

These data come from ChEMBL document CHEMBL4184141, “Investigating the Antibacterial Activity of Biphenylthiazoles against Methicillin- and Vancomycin-Resistant Staphylococcus aureus (MRSA and VRSA)” (J Med Chem, 2017).
